What was measured:
Experiment in all cases: relative viability (nuclei count vs DMSO), 5 days (fraction); higher = more cells survive
Idelalisib + Trametinib = compound: CC[C@H](Nc1ncnc2[nH]cnc12)c1nc2cccc(F)c2c(=O)n1-c1ccccc1 [Idelalisib] + CC(=O)Nc1cccc(-n2c(=O)n(C3CC3)c(=O)c3c(Nc4ccc(I)cc4F)n(C)c(=O)c(C)c32)c1 [Trametinib] (partner 0.02 µM)
In short: (§1)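 Dosing by pin tool came one day after lung cancer cell lines were seeded in 1536-well plates, using either one drug or a fixed anchor-drug dose plus five library-drug doses (not always all listed) in √10 steps. After 5 days, nuclei were counted on 4× images. Relative viability is treated-well nuclei count divided by vehicle-well nuclei count, and values are medians of duplicate plates.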

Idelalisib + Navitoclax = compound: CC[C@H](Nc1ncnc2[nH]cnc12)c1nc2cccc(F)c2c(=O)n1-c1ccccc1 [Idelalisib] + CC1(C)CCC(c2ccc(Cl)cc2)=C(CN2CCN(c3ccc(C(=O)NS(=O)(=O)c4ccc(N[C@H](CCN5CCOCC5)CSc5ccccc5)c(S(=O)(=O)C(F)(F)F)c4)cc3)CC2)C1 [Navitoclax] (partner 0.5 µM)
In short: as §1

Idelalisib + Vorinostat = compound: CC[C@H](Nc1ncnc2[nH]cnc12)c1nc2cccc(F)c2c(=O)n1-c1ccccc1 [Idelalisib] + O=C(CCCCCCC(=O)Nc1ccccc1)NO [Vorinostat] (partner 1 µM)
In short: as §1

Pemetrexed + Decitabine = compound: Nc1nc2[nH]cc(CCc3ccc(C(=O)N[C@@H](CCC(=O)O)C(=O)O)cc3)c2c(=O)[nH]1 [Pemetrexed] + Nc1ncn([C@H]2C[C@H](O)[C@@H](CO)O2)c(=O)n1 [Decitabine] (partner 2 µM)
In short: as §1

Row | Cell Line | relative viability (Idelalisib + Trametinib; first compound 0.04 µM) | relative viability (Idelalisib + Trametinib; first compound 0.1265 µM) | relative viability (Idelalisib + Trametinib; first compound 0.4 µM) | relative viability (Idelalisib + Trametinib; first compound 1.265 µM) | relative viability (Idelalisib + Trametinib; first compound 4 µM) | relative viability (Idelalisib + Navitoclax; first compound 0.04 µM) | relative viability (Idelalisib + Navitoclax; first compound 0.1265 µM) | relative viability (Idelalisib + Navitoclax; first compound 0.4 µM) | relative viability (Idelalisib + Navitoclax; first compound 1.265 µM) | relative viability (Idelalisib + Navitoclax; first compound 4 µM) | relative viability (Idelalisib + Vorinostat; first compound 0.04 µM) | relative viability (Idelalisib + Vorinostat; first compound 0.1265 µM) | relative viability (Idelalisib + Vorinostat; first compound 0.4 µM) | relative viability (Idelalisib + Vorinostat; first compound 1.265 µM) | relative viability (Idelalisib + Vorinostat; first compound 4 µM) | relative viability (Pemetrexed + Decitabine; first compound 0.002 µM) | relative viability (Pemetrexed + Decitabine; first compound 0.006325 µM) | relative viability (Pemetrexed + Decitabine; first compound 0.02 µM) | relative viability (Pemetrexed + Decitabine; first compound 0.06325 µM) | relative viability (Pemetrexed + Decitabine; first compound 0.2 µM)
1 | LOU-NH91 | 0.85 | 0.803 | 0.718 | 0.751 | 0.781 | 0.741 | 0.699 | 0.667 | 0.463 | 0.617 | 0.998 | 0.899 | 0.794 | 0.726 | 0.91 | 0.811 | 0.78 | 0.798 | 0.66 | 0.578
2 | NCI-H1666 | 0.806 | 0.931 | 0.815 | 0.803 | 0.831 | 0.892 | 0.928 | 0.835 | 0.804 | 0.69 | 1.01 | 1.02 | 0.962 | 1.05 | 1.08 | 0.637 | 0.724 | 0.712 | 0.594 | 0.612
3 | SK-MES-1 | 0.497 | 0.482 | 0.426 | 0.477 | 0.353 | 0.995 | 1.41 | 1.12 | 1.08 | 0.867 | 1.19 | 1.06 | 0.974 | 0.395 | 1.04 | 0.369 | 0.331 | 0.408 | 0.421 | 0.367
4 | NCI-H2023 | 0.487 | 0.533 | 0.49 | 0.537 | 0.37 | 1.05 | 1.02 | 0.994 | 0.945 | 0.939 | 0.909 | 0.702 | 0.469 | 0.375 | 0.682 | 0.181 | 0.206 | 0.246 | 0.173 | 0.125
5 | COR-L 105 | 0.518 | 0.41 | 0.41 | 0.456 | 0.461 | 0.794 | 1.04 | 0.805 | 0.893 | 0.52 | 0.859 | 0.876 | 0.778 | 0.724 | 1.11 | 0.672 | 0.692 | 0.699 | 0.633 | 0.685
6 | NCI-H838 | 0.53 | 0.551 | 0.432 | 0.511 | 0.372 | 1 | 1.14 | 1.07 | 1.05 | 0.977 | 0.752 | 0.731 | 0.68 | 0.716 | 0.618 | 0.475 | 0.45 | 0.516 | 0.365 | 0.274
7 | SW 1573 | 0.688 | 0.468 | 0.477 | 0.506 | 0.383 | 0.859 | 0.837 | 0.994 | 0.926 | 0.791 | 0.907 | 0.629 | 0.7 | 0.556 | 0.49 | 0.577 | 0.662 | 0.615 | 0.53 | 0.525

Source: the supplement of paper PMC10307832
